Read-outs that look alike come from different tables or passages of the source.
Tests used:
HPK1 = HPK1 (Homo sapiens, UniProt Q92918); test: HPK1 biochemical assay (ADP-GLO Kinase Assay)
Procedure, shortened: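 HPK1 (0.6 ng/μL final) activity was followed with MBP substrate and 10 μM ATP in Tris pH 7.5/MgCl2/BSA/DTT buffer, measured by ADP-Glo luminescence. Compounds were tested as 3-fold dilutions from 10 μM. IC50 came from a three-parameter logistic fit, with inhibition normalised to high/low controls.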

[1] = system: Human Pan T Cell (IL-2 release); test: IL2 released by human pan T cell upon anti-CD3/anti-CD28 stimulation (ELISA); format: cell-based; conditions: human pan T cells; for maximal fold induction: 48 h, response of IL-2 over DMSO control, anti-CD3/anti-CD28, 48 hours, ELISA, read-out: IL-2 Max Fold Response
Text: For example, Example 5 describes such a functional assay for determining the effect of an HPK1 inhibitor on IL-2 & IFN-γ release upon stimulation of Pan T cells. The secreted IL-2 & IFN-γ can be measured/quantified by standard ELISA assay. Briefly, pan T cells can be isolated from peripheral blood (PB) mononuclear cells (MNCs), or PBMC, using commercially available kits, such as MACS (Miltenyl Biotec) Pan T isolation kit (Cat. No. 130-096-535). Primary human pan-T cells include CD4 and CD8 T cells as well as some gamma/delta T cell subsets. The pan-T cells can be isolated using the negative immunomagnetic separation technique without the use of columns.
Isolated pan-T cells can be dispensed into 96-well plates at 100,000 cells/well, and stimulated with immobilized anti-CD3 antibody and soluable anti-CD28 antibody, or PMA/Ionomycin as the positive control (or culture media as the negative control). Different concentrations of test compounds can be added to the cells to assess the compound effect on cytokine secretion following TCR-stimulation/CD28 co-stimulation. Stimulated cells are incubated for 2 more days, before the supernatant (containing secreted cytokines by pan-T cells) is collected from each well for ELISA assay and quantitation of IL-2 and IFN-γ.
Biology Example 8 Compound Efficacy Study on IL2 & IFN-γ Released by Human Pan T Cell
This example is an assay method that can be used to determine compound effects on IL2 & IFN-γ release using pan T cells and ELISA assay format.
3. Procedures Procedures for Pan T isolation and Reagent preparation (Day 0): 1. Cell Growth Medium: • RPMI1640: ATCC, Cat #30-2001 • 10% FBS: Gibco, Cat #10099141 • 1% Pen-Strep: Gibco, Cat #15140122 • 1% Non-essential amino: Gibco, Cat #11140050 • Beta-Mercaptoethanol: Gibco, Cat #21985023 2. Pan T Isolation Buffer Preparation:
Prepare a solution containing phosphate-buffered saline (PBS), pH 7.2, 0.5% bovine serum albumin (BSA), and 2 mM EDTA by diluting MACS® BSA Stock Solution (#130-091-376) 20 times with autoMACS® Rinsing Solution. Keep buffer at 4° C. Degas buffer before use, as air bubbles could block the column.
3. Thawing of Frozen PBMC • 1) Pre-heat medium at 37° C. water bath. • 2) Rapidly thaw cells in 37° C. water bath. • 3) Add the pre-warmed medium into 15 mL tube. Transfer cells to the tube. • 4) 300×g centrifuge for 8 min. (centrifuge increase 0, decrease 0). • 5) Wash the PBMC using Rinsing buffer. • 6) Centrifuge PBMC at 300×g for 8 min, wash it twice (centrifuge increase 9, decrease 1). • 7) Resuspend the cells with Pan T cells isolation buffer and count cells number. 4. Pan T Cells Isolation: Cell Staining with Microbead Cocktail • 1) Prepare cells and determine cell number. Filter cells by 70 μm cell strainer. • 2) Resuspend cell pellet in 40 μL of buffer per 10^7 total cells. • 3) Add 10 μL of Pan T Cell Biotin-Antibody Cocktail per 10^7 total cells. • 4) Mix well and incubate for 10 minutes in the refrigerator (ice). • 5) Add 30 μL of buffer per 10^7 total cells. • 6) Add 20 μL of Pan T Cell MicroBead Cocktail per 10^7 total cells. • 7) Mix well and incubate for 15 minutes in the refrigerator (ice). • 8) Proceed to subsequent magnetic cell separation. • Note: a. Work fast, keep cells cold, and use pre-cooled solutions (2-8° C.). b. Volumes for magnetic labeling given are for up to 10′ total cells. When working with fewer cells, use the same volumes as indicated. c. When working with higher cell numbers, scale up all reagent volumes and total volumes accordingly. d. For optimal performance it is important to obtain a single-cell suspension before magnetic labeling. Subsequent Manual Cell Separation: • 1) Place LS Column in the magnetic field of a suitable MACS Separator. For details refer to the respective MACS Column data sheet. • 2) Prepare column by rinsing with 3 mL of buffer. • 3) Apply cell suspension onto the column. Collect flow-through, which represents the enriched T cells. • 4) Wash column with 5 mL of buffer. […]

JAK3 = target: T1, JAK3 (Homo sapiens, UniProt P52333); test: JAK3 biochemical assay (ADP-GLO Kinase Assay); conditions: for JAKs/HPK1 IC50 Ratio, B* / JAKs/HPK1 IC50 Ratio, N*: ratio of JAK3 IC50 to HPK1 IC50; for JAKs/HPK1 IC50 Ratio, B*: first testing facility; for JAKs/HPK1 IC50 Ratio, N*: second testing facility
T1 construct: purchased Thermo fisher PV3855
T1 sequence (P52333 781-1124 limits assumed): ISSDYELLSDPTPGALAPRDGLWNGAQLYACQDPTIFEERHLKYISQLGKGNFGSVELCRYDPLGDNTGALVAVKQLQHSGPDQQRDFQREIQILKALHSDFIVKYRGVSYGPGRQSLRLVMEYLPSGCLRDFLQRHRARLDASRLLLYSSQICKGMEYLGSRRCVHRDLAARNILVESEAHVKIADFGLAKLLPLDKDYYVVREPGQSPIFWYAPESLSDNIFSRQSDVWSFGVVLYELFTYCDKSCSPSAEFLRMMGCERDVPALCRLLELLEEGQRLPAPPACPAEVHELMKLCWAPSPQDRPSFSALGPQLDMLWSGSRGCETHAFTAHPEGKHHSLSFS
Procedure, shortened: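 Human JAK3 (0.78 ng) with 0.2 μg/μL Poly(E4Y1) and 4 μM ATP in 40 mM Tris pH 7.5, 20 mM MgCl2, 0.1 mg/ml BSA, 50 μM DTT, 1% DMSO; 60 min at 25 °C. ADP formed read by ADP-Glo luminescence. 10-dose 3-fold series from 10 μM; IC50 by three-parameter logistic fit.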

[2] = B*: testing performed in a first testing facility, read-out: HPK1 IC50 (nM) Relative, B*
[3] = B*: testing performed in a first testing facility, read-out: JAK3 IC50 (nM) Relative, B*
[4] = N*: testing performed in a second testing facility, read-out: JAK3 IC50 (nM) Relative, N*
[5] = N*: testing performed in a second testing facility, read-out: HPK1 IC50 (nM) Relative, N*

Sequence of HPK1 (Q92918 whole entry): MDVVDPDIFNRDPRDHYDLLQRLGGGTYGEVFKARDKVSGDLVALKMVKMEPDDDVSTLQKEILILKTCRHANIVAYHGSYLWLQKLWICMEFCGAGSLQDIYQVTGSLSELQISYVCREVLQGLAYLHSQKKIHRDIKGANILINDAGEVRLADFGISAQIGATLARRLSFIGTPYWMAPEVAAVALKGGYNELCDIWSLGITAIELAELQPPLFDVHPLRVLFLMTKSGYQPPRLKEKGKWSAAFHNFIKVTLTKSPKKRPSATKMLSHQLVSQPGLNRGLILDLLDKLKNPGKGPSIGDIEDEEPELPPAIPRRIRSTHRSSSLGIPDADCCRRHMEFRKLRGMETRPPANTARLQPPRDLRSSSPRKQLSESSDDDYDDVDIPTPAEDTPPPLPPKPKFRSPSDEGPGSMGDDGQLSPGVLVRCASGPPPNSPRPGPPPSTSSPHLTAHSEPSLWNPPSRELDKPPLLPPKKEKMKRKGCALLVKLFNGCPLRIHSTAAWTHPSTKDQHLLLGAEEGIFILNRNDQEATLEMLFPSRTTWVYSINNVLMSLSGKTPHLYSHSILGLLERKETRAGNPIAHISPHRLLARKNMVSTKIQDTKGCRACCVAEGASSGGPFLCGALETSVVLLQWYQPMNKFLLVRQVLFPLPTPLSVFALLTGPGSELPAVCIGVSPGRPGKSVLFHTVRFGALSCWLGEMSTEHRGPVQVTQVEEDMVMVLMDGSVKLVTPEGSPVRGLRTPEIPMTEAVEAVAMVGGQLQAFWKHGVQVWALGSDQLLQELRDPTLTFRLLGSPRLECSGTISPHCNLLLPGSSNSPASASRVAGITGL

IC50 (HPK1; [2]) [nM] | EC50 ([1]; Homo sapiens, T-cell, IL-2 response, calculated with GraphPad Prism) [nM] | IC50 (JAK3; [3]) [nM] | JAKs/HPK1 IC50 Ratio, B* (JAK3) | IC50 (JAK3; [4]) [nM] | JAKs/HPK1 IC50 Ratio, N* (JAK3) | IC50 (HPK1; [5]) [nM] | SMILES | maximal fold induction ([1]; Homo sapiens, T-cell) | EC2x (nM) ([1]; concentration of compound that gives 200% IL-2 response (2 folds) over DMSO control)
≤ 100 | > 1000 | – | – | – | – | – | COc1cc2c(cc1Nc1ncc(Cl)c(N3CCc4ccccc43)n1)CN(CCO)CC2 [Example 27] | > 2 | + (“+”, for greater than 1 μM)
≤ 100 | – | ≤ 100 | 5 | – | – | – | COc1cc2c(cc1Nc1ncc(Cl)c(N3CC(C)(C(=O)O)c4ccccc43)n1)CN(C)CC2 (centres unmarked) [Example 117] | – | –
> 1000 | – | – | – | > 1000 | >10 | > 1000 | COc1cc2c(cc1Nc1ncc3ncn(-c4ccccc4C(=O)N(C)C)c3n1)CN(C)CC2 [Example 44, 2-(2-((6-Methoxy-2-methyl-1,2,3,4-tetrahydroisoquinolin-7-yl)amino)-9H-purin-9-yl)-N,N-dimethylbenzamide] | – | –
100 to 500 | – | > 1000 | >82 | – | – | – | CCC(CC)COC(=O)Cc1cn(-c2nc(Nc3cc4c(cc3OC)CCN(C)C4)ncc2Cl)c2ccccc12 [Example 131, 2-Ethylbutyl 2-(1-(5-chloro-2-((6-methoxy-2-methyl-1,2,3,4-tetrahydroisoquinolin-7-yl)amino)pyrimidin-4-yl)-1H-indol-3-yl)acetate] | – | –
100 to 500 | – | > 1000 | 77 | – | – | – | COc1cc2c(cc1Nc1ncc(Cl)c(N3CCC4(COC4)C3)n1)CN(C)CC2 [Example 170, N-(5-chloro-4-(2-oxa-6-azaspiro[3.4]octan-6-yl)pyrimidin-2-yl)-6-methoxy-2-methyl-1,2,3,4-tetrahydroisoquinolin-7-amine] | – | –
≤ 100 | – | > 1000 | 737 | – | – | – | COc1cc2c(cc1Nc1ncc(Cl)c(N3CC(C(=O)O)C4(CCOCC4)C3)n1)CN(C)CC2 (centres unmarked) [Example 168] | – | –
> 1000 | – | – | – | > 1000 | >10 | > 1000 | COc1cc2c(cc1Nc1ncc3ncn(-c4ccccc4)c3n1)CN(C)CC2 [Example 43, 6-Methoxy-2-methyl-N-(9-phenyl-9H-purin-2-yl)-1,2,3,4-tetrahydroisoquinolin-7-amine] | – | –
≤ 100 | – | > 1000 | >118 | – | – | – | COC(=O)c1cn(-c2nc(Nc3cc4c(cc3OC)CCN(C)C4)ncc2Cl)c2ccccc12 [Example 114] | – | –
≤ 100 | – | > 1000 | 163 | > 1000 | 101 | ≤ 100 | CCc1c[nH]c2ncc(-c3ccc(C)c(P(C)(C)=O)c3)cc12 [Example 50, (5-(3-Ethyl-1H-pyrrolo[2,3-b]pyridin-5-yl)-2-methylphenyl)dimethylphosphine oxide] | – | –
≤ 100 | – | > 1000 | – | – | – | – | COc1cc2c(cc1Nc1ncc(Cl)c(N3CCCc4ccccc43)n1)CN(C)CC2 [Example 6, N-(5-chloro-4-(3,4-dihydroquinolin-1(2H)-yl)pyrimidin-2-yl)-6-methoxy-2-methyl-1,2,3,4-tetrahydroisoquinolin-7-amine] | – | –
≤ 100 | – | ≤ 100 | 20 | – | – | – | COc1cc2c(cc1Nc1ncc(Cl)c(N3CC(CO)(C(=O)O)c4ccccc43)n1)CN(C)CC2 (centres unmarked) [Example 124] | – | –
100 to 500 | – | > 1000 | 11 | – | – | – | CCc1c[nH]c2ncc(-c3ccc(C(=O)OC)c(P(C)(C)=O)c3)cc12 [Example 72, Methyl 2-(dimethylphosphoryl)-4-(3-ethyl-1H-pyrrolo[2,3-b]pyridin-5-yl)benzoate] | – | –
≤ 100 | – | – | – | – | – | – | COc1cc2c(cc1Nc1ncc(Cl)c(-n3cc(F)c4ccccc43)n1)CN(C)CC2 [Example 11, N-(5-Chloro-4-(3-fluoro-1H-indol-1-yl)pyrimidin-2-yl)-6-methoxy-2-methyl-1,2,3,4-tetrahydroisoquinolin-7-amine] | < 2 | –
≤ 100 | – | > 1000 | >111 | – | – | – | COc1nc2c(cc1Nc1ncc(Cl)c(N3CC(C)(CC(=O)O)c4ccccc43)n1)CN(C)CC2 (centres unmarked) [Example 155] | – | –
≤ 100 | – | > 1000 | >426 | – | – | – | CCOC(=O)Cc1cn(-c2nc(Nc3cc4c(cc3OC)CCN(C)C4)ncc2Cl)c2ccccc12 [Example 132] | – | –
≤ 100 | – | > 1000 | >118 | – | – | – | COc1cc2c(cc1Nc1ncc(Cl)c(N3CCOc4ccccc43)n1)CN(C)CC2 [Example 7, N-(5-chloro-4-(2,3-dihydro-4H-benzo[b][1,4]oxazin-4-yl)pyrimidin-2-yl)-6-methoxy-2-methyl-1,2,3,4-tetrahydroisoquinolin-7-amine] | – | –
100 to 500 | – | – | – | > 1000 | >163 | ≤ 100 | COc1cc2c(cc1Nc1ncc3ccn(-c4ccccc4C(=O)N(C)C)c3n1)CN(C)CC2 [Example 38] | – | –
